Test results: patent US10722520B2, “Heterocyclic compounds and their use in preventing or treating bacterial infections” (MUTABILIS, priority 2016, dated 2020)

Tests used:
CMY-37 = CMY-37 (Citrobacter freundii, UniProt P05193); settings: read-out: IC50 β-lactamase CMY-37
TEM-1 = TEM-1 (Escherichia coli, UniProt P62593)
K. pneumoniae BAA-1898 = test: MIC of ceftazidime (CAZ) at fixed concentration of compound (synergy), broth microdilution; format: cell-based; settings: strain BAA-1898 (K. pneumoniae)
In short: (§1)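 Log-phase bacteria were diluted to a final 5×10^5 cfu/mL in cation-adjusted Mueller-Hinton broth and incubated 16-20 h at 35° C in ambient air. MIC was taken as the lowest concentration preventing growth, judged visually.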

K. pneumoniae 6299 = test: as above; format: cell-based; settings: strain 6299 (K. pneumoniae)
In short: as §1

E. coli UFR32 [1] = test: as above; format: cell-based; settings: strain UFR32 (E. coli)
In short: as §1

E. cloacae P99 [2] = test: as above; format: cell-based; settings: strain P99 (E. cloacae)
In short: as §1

E. coli 131119 = test: as above; format: cell-based; settings: strain 131119 (E. coli)
In short: as §1

K. pneumoniae 160143 = test: as above; format: cell-based; settings: strain 160143 (K. pneumoniae)
In short: as §1

E. coli 190317 = test: as above; format: cell-based; settings: strain 190317 (E. coli)
In short: as §1

E. coli UFR18 = test: as above; format: cell-based; settings: strain UFR18 (E. coli)
In short: as §1

E. coli RGN238 [3] = test: as above; format: cell-based; settings: strain RGN238 (E. coli)
In short: as §1

E. coli UFR39 = test: as above; format: cell-based; settings: strain UFR39 (E. coli)
In short: as §1

E. cloacae UFR51 = test: as above; format: cell-based; settings: strain UFR51 (E. cloacae)
In short: as §1

K. pneumoniae UFR77 = test: as above; format: cell-based; settings: strain UFR77 (K. pneumoniae)
In short: as §1

K. oxytoca UFR21 = test: as above; format: cell-based; settings: strain UFR21 (K. oxytoca)
In short: as §1

K. pneumoniae UFR68 = test: as above; format: cell-based; settings: strain UFR68 (K. pneumoniae)
In short: as §1

P. aeruginosa CIP107051 [4] = test: as above; format: cell-based; settings: strain CIP107051 (P. aeruginosa)
In short: as §1

E. cloacae 260508 = test: as above; format: cell-based; settings: strain 260508 (E. cloacae)
In short: as §1

E. coli UFR61O = test: as above; format: cell-based; settings: strain UFR61O (E. coli)
In short: as §1

K. pneumoniae UFR24 = test: as above; format: cell-based; settings: strain UFR24 (K. pneumoniae)
In short: as §1

K. pneumoniae 200047 = test: as above; format: cell-based; settings: strain 200047 (K. pneumoniae)
In short: as §1

E. coli UFR41 = test: as above; format: cell-based; settings: strain UFR41 (E. coli)
In short: as §1

E. cloacae UFR85 = test: as above; format: cell-based; settings: strain UFR85 (E. cloacae)
In short: as §1

E. coli UFR74 = test: as above; format: cell-based; settings: strain UFR74 (E. coli)
In short: as §1

E. cloacae UFR70 = test: as above; format: cell-based; settings: strain UFR70 (E. cloacae)
In short: as §1

E. coli RGN238 [5] = test: microbe, parasite or virus in culture; format: cell-based; settings: Escherichia coli, RGN238, read-out: MIC compounds of the invention alone
Protocol: Log phase bacterial suspensions were adjusted to a final density of 5×10^5 cfu/mL in cation-adjusted Mueller-Hinton broth (Becton-Dickinson) and added to each well (98 μL). Microplates were incubated for 16-20 h at 35° C. in ambient air. The MIC of the compounds was defined as the lowest concentration of said compounds that prevented bacterial growth as read by visual inspection.

OXA-15 = OXA-15 (Pseudomonas aeruginosa, UniProt Q51574); test: biochemical
E. coli UFR32 [6] = test: MIC of compound alone, broth microdilution; format: cell-based; settings: Escherichia coli; strain UFR32: E. coli; TEM-1, VEB-1, OXA-10; read-out: MIC compounds of the invention alone
In short: as §1

E. cloacae P99 [7] = test: MIC of compound alone, broth microdilution; format: cell-based; settings: Enterobacter cloacae; strain P99: E. cloacae; AmpC; read-out: MIC compounds of the invention alone
In short: as §1

P. aeruginosa CIP107051 [8] = test: MIC of compound alone, broth microdilution; format: cell-based; settings: Pseudomonas aeruginosa; strain CIP107051: P. aeruginosa; TEM-24; read-out: MIC compounds of the invention alone
In short: as §1

[9] = footnote *: MIC of ceftazidime with compound fixed at 8 μg/mL
[10] = MIC of ceftazidime with compound fixed at 4 μg/mL

Chain of TEM-1 (P62593 24-286 limits assumed): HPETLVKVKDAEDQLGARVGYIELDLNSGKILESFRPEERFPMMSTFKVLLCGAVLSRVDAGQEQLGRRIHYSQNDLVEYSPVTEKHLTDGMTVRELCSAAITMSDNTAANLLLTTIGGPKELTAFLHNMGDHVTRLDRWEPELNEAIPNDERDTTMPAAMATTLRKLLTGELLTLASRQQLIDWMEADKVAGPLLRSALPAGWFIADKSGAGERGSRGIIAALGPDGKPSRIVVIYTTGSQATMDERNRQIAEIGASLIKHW
Chain of OXA-15 (Q51574 22-275): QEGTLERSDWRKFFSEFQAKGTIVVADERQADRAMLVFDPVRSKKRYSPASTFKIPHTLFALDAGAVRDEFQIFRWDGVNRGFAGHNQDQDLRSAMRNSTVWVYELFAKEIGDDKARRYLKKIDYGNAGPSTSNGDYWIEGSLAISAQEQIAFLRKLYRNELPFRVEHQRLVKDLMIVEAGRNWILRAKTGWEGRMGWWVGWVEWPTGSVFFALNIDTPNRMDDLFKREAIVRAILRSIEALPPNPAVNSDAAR
Chain of CMY-37 (P05193 21-381 limits assumed): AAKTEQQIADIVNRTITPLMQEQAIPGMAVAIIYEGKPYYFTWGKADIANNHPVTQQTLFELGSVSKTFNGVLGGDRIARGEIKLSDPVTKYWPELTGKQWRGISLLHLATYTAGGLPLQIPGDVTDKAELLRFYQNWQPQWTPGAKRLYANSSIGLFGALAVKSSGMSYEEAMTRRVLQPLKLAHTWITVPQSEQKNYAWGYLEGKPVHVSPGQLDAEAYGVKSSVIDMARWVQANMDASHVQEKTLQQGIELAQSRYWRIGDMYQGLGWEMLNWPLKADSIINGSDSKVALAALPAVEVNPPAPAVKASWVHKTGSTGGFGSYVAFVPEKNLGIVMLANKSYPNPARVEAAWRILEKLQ

O=C1N2CC(n3cncn3)=CC(C2)N1OS(=O)(=O)[O-].[Na+] (stereo not drawn) [Example 5, sodium [7-oxo-3-(1,2,4-triazol-1-yl)-1,6-diazabicyclo[3.2.1]oct-3-en-6-yl]sulfate]
IC50 (CMY-37): 36 nM
IC50 (TEM-1): 0.8 nM
MIC combination of CAZ and compound at 8 μg/mL (K. pneumoniae BAA-1898; [9]): <0.25
MIC combination of CAZ and compound at 8 μg/mL (K. pneumoniae 6299; [9]): <0.25
MIC combination of CAZ and compound at 8 μg/mL (E. coli UFR32 [1]; [9]): <0.25
MIC combination of CAZ and compound at 8 μg/mL (E. cloacae P99 [2]; [9]): <0.25
MIC combination of CAZ and compound at 8 μg/mL (E. coli 131119; [9]): <0.25
MIC combination of CAZ and compound at 8 μg/mL (K. pneumoniae 160143; [9]): <0.25
MIC combination of CAZ and compound at 8 μg/mL (E. coli 190317; [9]): <0.25
MIC combination of CAZ and compound at 8 μg/mL (E. coli UFR18; [9]): <0.25
MIC combination of CAZ and compound at 8 μg/mL (E. coli RGN238 [3]; [9]): <0.25
MIC combination of CAZ and compound at 8 μg/mL (E. coli UFR39; [9]): <0.25
MIC combination of CAZ and compound at 8 μg/mL (E. cloacae UFR51; [9]): <0.25
MIC combination of CAZ and compound at 8 μg/mL (K. pneumoniae UFR77; [9]): <0.25
MIC combination of CAZ and compound at 8 μg/mL (K. oxytoca UFR21; [9]): <0.25
MIC combination of CAZ and compound at 8 μg/mL (K. pneumoniae UFR68; [9]): <0.25
MIC combination of CAZ and compound at 8 μg/mL (P. aeruginosa CIP107051 [4]; [9]): 4
MIC combination of CAZ and compound at 8 μg/mL (E. cloacae 260508; [9]): <0.25
MIC combination of CAZ and compound at 8 μg/mL (E. coli UFR61O; [9]): <0.25
MIC combination of CAZ and compound at 8 μg/mL (K. pneumoniae UFR24; [9]): <0.25
MIC combination of CAZ and compound at 8 μg/mL (K. pneumoniae 200047; [9]): <0.25
MIC combination of CAZ and compound at 8 μg/mL (E. coli UFR41; [9]): <0.25
MIC combination of CAZ and compound at 8 μg/mL (E. cloacae UFR85; [9]): <0.25
MIC combination of CAZ and compound at 8 μg/mL (E. coli UFR74; [9]): <0.25
MIC combination of CAZ and compound at 8 μg/mL (E. cloacae UFR70; [9]): <0.25
MIC (E. coli RGN238 [5]): 2 µg/mL
IC50 (OXA-15): 27 nM
MIC (E. coli UFR32 [6]): 2 µg/mL
MIC (E. cloacae P99 [7]): 4 µg/mL
MIC (P. aeruginosa CIP107051 [8]): > 32 µg/mL

O=C1N2CC(n3ccsc3=O)=CC(C2)N1OS(=O)(=O)[O-].[Na+] (stereo not drawn) [Example 1, Sodium [7-oxo-3-(2-oxo-thiazol-3-yl)-1,6-diaza-bicyclo[3.2.1]oct-3-en-6-yl]sulfate]
IC50 (CMY-37): 33 nM
IC50 (TEM-1): 0.25 nM
MIC combination of CAZ and compounds of the invention at 4 μg/mL (K. pneumoniae BAA-1898; [10]): ≤0.25
MIC combination of CAZ and compounds of the invention at 4 μg/mL (K. pneumoniae 6299; [10]): ≤0.25
MIC combination of CAZ and compounds of the invention at 4 μg/mL (E. coli UFR32 [1]; [10]): <0.25
MIC combination of CAZ and compounds of the invention at 4 μg/mL (E. cloacae P99 [2]; [10]): <0.25
MIC combination of CAZ and compounds of the invention at 4 μg/mL (E. coli 131119; [10]): <0.25
MIC combination of CAZ and compounds of the invention at 4 μg/mL (K. pneumoniae 160143; [10]): ≤0.25
MIC combination of CAZ and compounds of the invention at 4 μg/mL (E. coli 190317; [10]): <0.25
MIC combination of CAZ and compounds of the invention at 4 μg/mL (E. coli UFR18; [10]): <0.25
MIC combination of CAZ and compounds of the invention at 4 μg/mL (E. coli RGN238 [3]; [10]): <0.25
MIC combination of CAZ and compounds of the invention at 4 μg/mL (E. coli UFR39; [10]): <0.25
MIC combination of CAZ and compounds of the invention at 4 μg/mL (E. cloacae UFR51; [10]): <0.25
MIC combination of CAZ and compounds of the invention at 4 μg/mL (K. pneumoniae UFR77; [10]): ≤0.25
MIC combination of CAZ and compounds of the invention at 4 μg/mL (K. oxytoca UFR21; [10]): 0.5
MIC combination of CAZ and compounds of the invention at 4 μg/mL (K. pneumoniae UFR68; [10]): <0.25
MIC combination of CAZ and compounds of the invention at 4 μg/mL (P. aeruginosa CIP107051 [4]; [10]): 8
MIC combination of CAZ and compounds of the invention at 4 μg/mL (E. cloacae 260508; [10]): <0.25
MIC combination of CAZ and compounds of the invention at 4 μg/mL (E. coli UFR61O; [10]): ≤0.25
MIC combination of CAZ and compounds of the invention at 4 μg/mL (K. pneumoniae UFR24; [10]): 0.5
MIC combination of CAZ and compounds of the invention at 4 μg/mL (K. pneumoniae 200047; [10]): ≤0.25
MIC combination of CAZ and compounds of the invention at 4 μg/mL (E. coli UFR41; [10]): 0.5
MIC combination of CAZ and compounds of the invention at 4 μg/mL (E. cloacae UFR85; [10]): <0.25
MIC combination of CAZ and compounds of the invention at 4 μg/mL (E. coli UFR74; [10]): ≤0.25
MIC combination of CAZ and compounds of the invention at 4 μg/mL (E. cloacae UFR70; [10]): ≤0.25
MIC (E. coli RGN238 [5]): 8 µg/mL
IC50 (OXA-15): 92 nM
MIC (E. coli UFR32 [6]): 4 µg/mL
MIC (E. cloacae P99 [7]): 4 µg/mL
MIC (P. aeruginosa CIP107051 [8]): > 32 µg/mL
